From patent publication US10010584B2, “Treatment of depressive disorders” (Blanchette Rockefeller Neuroscience Institute, priority 2004, dated 2018)
Like-named read-outs stand apart in the source and are kept apart here.

Tests used:
[1] = test system: Adult Wistar rats; assay: Open-space-swimming test; type: in vivo, rat; settings: for mobility (distance moved) / immobility compared with control group: 10 mg/kg×3 per day, 23, 2 and 1 h before trial sessions, saline control; for percentages of decreases in the distance moved on the third day (using the decrease of control groups as 100%): 10 mg/kg×3 per day i.p., n=8
Protocol: Adult Wistar rats (180-200 g) were housed in a temperature-controlled (20-24° C.) room for at least a week prior to experimentation, allowed free access to food and water, and kept on a 12-h light/dark cycle. They were randomly assigned to different groups (eight each) and were moved to the test room in their home cages at least 1 h before trials. Rats were individually placed into a round pool with a diameter of 152 cm and height of 60 cm and was filled with 40 cm H2O (22±1° C.). The room and pool are part of the started set-up used for spatial water maze task. (Sun et al. (2002) J. Pharmacol. Exp. Ther. 300: 408-416). The tests for different drug treatment and control groups were in a counterbalanced order. No escape was available in these trials. Rats were free to swim (or not to swim) for 15 min and then removed and returned to their home cage after drying. Observers were obscured from sight of the rats during the trials, but were able to observe the animals' behaviors on a video screen monitor during trials. The same procedure (15 min session per day) was repeated 24 h later and continued for 3 additional days. Drugs were dissolved in a saline solution for test groups and saline alone was used in the control groups. Imipramine (10 mg/kg×3 day, i.p.), iproniazid (10 mg/kg×3 per day, i.p.), mianserin (10 mg/kg×3 per day, i.p.), alaproclate (10 mg/kg×3 per day), or saline were administered between the swimming trial sessions at 23, 2, and 1 h before the second, third, and fourth trial sessions, respectively. The rationale for the three doses before test trials is the more consistent predictive effects than those of a single dose (Porsolt et al. (1977) Nature 266: 730-730-732; Porsolt et al. (1978) Eur J. Pharmacol. 47: 379-391; Poncelet et al, (1986) Psychopharmacology 90: 139-141). The swimming/drifting path was recorded with a video-tracking system that was also used for the spatial water maze task in other studies (Sun et al., 2002; Sun and Alkon, 2002a). The system tracks the animal's position by recording sequential x/y-coordinates of trigger events (video signal above track level) and calculating the distance, in the pool (sample period: 0.055 s) and adds the distance at pre-set intervals (15 min) during each trial. The tracking system, however, neither distinguishes nor determines the duration of any period of mobility or immobility. To evaluate whether the distance moved, as recorded by the tracking system, reflects the duration of active swimming, the investigator(s) also recorded the duration of active swimming on-line via the video screen monitor for a direct comparison of the two parameters.
Depressive behavior in rats was induced by placing the animals in an open-space swimming apparatus, as described herein, for 15 minutes per trial per day. The animals were subjected to three trials over the course of three days. The animals were divided into three groups: control rats (8); phenylalanine rats (10); and imipramine rats (10). The control rats received a single i.v. dose of saline in the tail vein, 3.5 hours before the second trial. […] Rats in the imipramine group received 3 i.p. doses (10 mg/kg) at 23, 2 and 1 hour before the first, second and third trials, respectively.
Depressive behavior in rats was induced by placing the animals in an open-space swimming apparatus, as described herein, for 15 minutes per trial per day. The animals were subjected to three trials over the course of three days. […] The control rats received a single i.v. dose of saline in the tail vein, 3.5 hours before the second trial.

[2] = test system: PKC; settings: cited from earlier work
[3] = test system: humans; settings: cited from earlier work
[4] = target: T1, PKCε (Homo sapiens, UniProt Q02156); settings: cited from earlier work
T1 sequence (Q02156 1-737): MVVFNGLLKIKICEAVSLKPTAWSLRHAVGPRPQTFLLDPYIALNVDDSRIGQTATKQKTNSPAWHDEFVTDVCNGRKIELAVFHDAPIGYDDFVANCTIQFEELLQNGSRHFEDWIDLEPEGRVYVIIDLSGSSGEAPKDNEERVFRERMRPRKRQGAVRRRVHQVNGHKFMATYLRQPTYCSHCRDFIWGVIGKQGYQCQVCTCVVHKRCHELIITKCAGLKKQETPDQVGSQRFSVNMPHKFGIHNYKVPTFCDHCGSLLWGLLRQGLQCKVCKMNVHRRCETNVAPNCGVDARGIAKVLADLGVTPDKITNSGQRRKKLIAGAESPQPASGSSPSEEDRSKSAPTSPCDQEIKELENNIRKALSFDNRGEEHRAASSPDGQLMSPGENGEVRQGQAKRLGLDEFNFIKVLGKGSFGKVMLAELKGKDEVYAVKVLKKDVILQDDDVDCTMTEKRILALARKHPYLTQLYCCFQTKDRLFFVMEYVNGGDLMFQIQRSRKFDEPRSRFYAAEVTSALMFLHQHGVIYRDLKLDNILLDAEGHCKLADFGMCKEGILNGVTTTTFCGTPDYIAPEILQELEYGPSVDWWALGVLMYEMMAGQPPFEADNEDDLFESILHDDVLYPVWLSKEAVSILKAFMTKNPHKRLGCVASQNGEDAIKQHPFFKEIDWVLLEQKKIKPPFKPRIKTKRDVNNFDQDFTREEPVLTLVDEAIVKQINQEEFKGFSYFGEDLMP

[5] = test system: murine leukemias and solid tumors; settings: cited from earlier work
[6] = test system: PKC; settings: K562 cells; cited from earlier work
[7] = test system: cyclin dependent kinase 2 (Cdk2); settings: at 5 ng/ml; cited from earlier work
[8] = target: PKC; settings: competes with [3H]phorbol dibutyrate; read-out: Ki for binding; cited from earlier work
[9] = test system: squamous cell carcinoma and melanoma; settings: used topically; cited from earlier work
[10] = test system: NCI 60 cell line screen; settings: cited from earlier work
[11] = target: PKCa (Homo sapiens, UniProt P17252); settings: cited from earlier work
[12] = test system: PKC; settings: cited from earlier work; remark: listed apart in the source
[13] = test system: rats; settings: forced swimming test, 15 mg/kg×3 per day i.p., n=5; cited from earlier work
[14] = target: protein kinase C; settings: (−)-enantiomer; cited from earlier work
[15] = (−)-enantiomer; cited from earlier work
[16] = Examples 7-13, present tense, no dose, no data

Molecule: CC(N)C(=O)OC(C)(C)Cc1ccc(Cl)cc1 (stereo not drawn) [Alaproclate, alaproclate]
- duration of active swimming compared with control group ([1]; rats, 10 mg/kg×3 per day): significantly longer
- mobility (distance moved) / immobility compared with control group ([1]; rats): effective in reducing the immobility

Molecule: CCCCCCCC(=O)O[C@H]1/C(=C/C(=O)OC)C[C@H]2C[C@H](CO)OC(=O)C[C@H](O)C[C@@H]3CCC[C@H](C[C@@H]4CCO[C@H](/C=C/C(C)(C)[C@]1(O)O2)O4)O3 [Analog 1]
- affinity for PKC (in words) [2]: highest affinity for PKC
- potency relative to bryostatin-1 [2]: about 100 times
- Ki ([2]; read-out: PKC Affin): 0.25 nM

Molecule: CCC/C=C/C=C/C(=O)O[C@H]1/C(=C/C(=O)OC)C[C@H]2C[C@H]([C@@H](C)O)OC(=O)C[C@H](O)C[C@@H]3C[C@H](OC(C)=O)C(C)(C)[C@](O)(C[C@@H]4C/C(=C/C(=O)OC)C[C@H](/C=C/C(C)(C)[C@]1(O)O2)O4)O3 [Bryostatin 1, bryostatin-1]
- difference from imipramine group (10 mg/kg i.p. ×3) ([1]; rats, single i.v. dose 80 μg/kg): No significant difference
- immobility compared with control group and imipramine group ([1]; rats, single i.v. dose 80 μg/kg in the tail vein 3.5 hours before the second trial): effective in reducing immobility
- main adverse reaction [3]: myalgia

Molecule: CCCCCC1CC1CC1CC1CCCCCCCC(=O)O (stereo not drawn) [DCP-LA, 2-[(2-pentylcyclopropyl)methyl]cyclopropaneoctanoic acid]
- concentration of maximal effect ([4]; activation of PKCε): 100 nM
- isoform selectivity of PKC activation [4]: selectively activates PKCε

Molecule: N[C@@H](Cc1ccccc1)C(=O)O [Effector 2, phenylalanine]
- immobility compared with control group and imipramine group ([1]; rats, single i.v. dose in the tail vein 3.5 hours before the second trial): effective in reducing the immobility

Molecule: N[C@@H](Cc1ccc(O)cc1)C(=O)O [Effector 4, 4-hydroxy phenylalanine]
- immobility compared with control group and imipramine group [1, 16]: effective in reducing immobility

Molecule: N[C@@H](Cc1ccc(F)cc1)C(=O)O [Effector 5, 4-fluoro phenylalanine]
- immobility compared with control group and imipramine group [1, 16]: effective in reducing immobility

Molecule: c1c[nH]cn1 [Effector 14, Imidazole]
- immobility compared with control group and imipramine group [1, 16]: effective in reducing immobility

Molecule: C=C(C)[C@]12C[C@@H](COC(=O)c3ccccc3)[C@@]34OC5(O[C@@H]1[C@@H]3C1O[C@]1(CO)[C@@H](O)[C@@]1(O)[C@H]4[C@@H](C(C)CCCCCC[C@@H]5O)C(C)[C@@H]1OC(=O)c1ccccc1)O2 (stereo partly drawn) [Gnidimacrin]
- concentrations of potent antitumor activity [5]: 0.1 to 1 nM
- concentration at which it acts as a PKC activator [6]: ≈ 3 nM
- inhibition of Cdk2 [7]: 100%

Molecule: CC1=C[C@]23C(=O)[C@@H](C=C(COC(=O)c4ccccc4)[C@@H](O)[C@]2(O)[C@H]1OC(=O)c1ccccc1)[C@H]1[C@@H](C[C@H]3C)C1(C)C [Ingenol 3,20-dibenzoate]
- Ki [8]: 240 nM

Molecule: C/C=C(/C)C(=O)O[C@H]1C(C)=C[C@]23C(=O)[C@@H](C=C(CO)[C@@H](O)[C@]12O)[C@H]1[C@@H](C[C@H]3C)C1(C)C [Ingenol-3-angelate]
- antitumor activity [9]: possesses antitumor activity

Molecule: CC1=CC[C@H](C)C(C)(C)[C@@H]1/C=C/C(C)=C/CC[C@@]1(CO)[C@H](CCCO)/C(=C(/C)C=O)CC[C@]1(C)O [Iripallidal]
- GI50 (concentration required to inhibit growth by 50%) [10]: from micromolar to nanomolar range
- Ki [11]: 75.6 nM

Molecule: CCCCCCCNS(=O)(=O)c1cccc2c(Cl)cccc12 [SC-10, N-(n-heptyl)-5-chloro-1-naphthalenesulfonamide]
- activation of PKC [12]: activates PKC in a calcium-dependent manner

Molecule: CCCCCCCC(=O)OC1C(=CC(=O)OC)CC2CC(CO)OC(=O)CC(O)CCOC(C(C)(C)C)CC3CCOC(C=CC(C)(C)C1(O)O2)O3 (stereo not drawn) [bryolog 3]
- Ki ([2]; A-ring bryologs, read-out: affinity for PKC): 6.5 nM

Molecule: CN(C)CCCN1c2ccccc2CCc2ccccc21 [imipramine]
- percentages of decreases in the distance moved on the third day (using the decrease of control groups as 100%) ([1]; rats): 49.8±7.6%
- immobility % as control [13]: 61.5±6.5%

Molecule: CC(C)NNC(=O)c1ccncc1 [iproniazid]
- percentages of decreases in the distance moved on the third day (using the decrease of control groups as 100%) ([1]; rats): 44.0±7.7%
- mobility (distance moved) / immobility compared with control group ([1]; rats): appeared more effective at the dose given than mianserin and imipramine
- immobility % as control [13]: 87.6±7.3%

Molecule: CN1CCN2c3ccccc3Cc3ccccc3C2C1 (stereo not drawn) [mianserin]
- percentages of decreases in the distance moved on the third day (using the decrease of control groups as 100%) ([1]; rats): 33.3±6.3%
- immobility % as control [13]: 66.5±7.0%

Molecule: CCCCCCCCc1ccc2c3c(c[nH]c13)C[C@@H](CO)NC(=O)[C@H](C(C)C)N2C [octylindolactam V, Octylindolactam V]
- EC50 [14]: 29 nM
- metabolic stability [15]: greater metabolic stability

B1: FGF-18: peptide consisting of 207 amino acids, member of the fibroblast growth factor family (protein, UniProt O76093 28-207, looked up)
Fibroblast growth factor 18: EENVDFRIHVENQTRARDDVSRKQLRLYQLYSRTSGKHIQVLGRRISARGEDGDKYAQLLVETDTFGSQVRIKGKETEFYLCMNRKGKLVGKPDGTSKECVFIEKVLENNYTALMSAKYSGWYVGFTKKGRPRKGPKTRENQQDVHFMKRYPKGQPELQKPFKYTTVTKRSRRIRPTHPA
- immobility compared with control group and imipramine group [1, 16]: effective in reducing immobility
